From patent US9850283B2, “Macrocyclic inhibitors of the PD-1/PD-L1 and CD80(B7-1)/PD-L1 protein/protein interactions” (BRISTOL-MYERS SQUIBB COMPANY, priority 2013, dated 2017)
Where two headings read alike, the source gives them in different places. Positions of bridges follow the written chain, without caps; N, C: chain ends. Non-standard residues stand in square brackets, D forms with d. Residues, ends and D or L forms follow the SMILES beside them. Phe(3,4,5-F3) = N[C@@H](Cc1cc(F)c(F)c(F)c1)C(=O)O; Phe(4-CH2NH2) = NCc1ccc(C[C@H](N)C(=O)O)cc1; NMeF = CN[C@@H](Cc1ccccc1)C(=O)O; NMeNle = CCCC[C@H](NC)C(=O)O

Columns and labels:
Human PD-L1/PD-1 = molecular target: T1, Human PD-L1/PD-1 (Homo sapiens, UniProt Q9NZQ7); assay: HTRF PD-1-Ig/PD-L1-His binding assay (human PD-L1); settings: cluster symbol; read-out: HTRF IC50 cluster
T1 construct: made in house; host or cells: HEK293T
T1 sequence (Q9NZQ7 with tags, fused parts or gaps): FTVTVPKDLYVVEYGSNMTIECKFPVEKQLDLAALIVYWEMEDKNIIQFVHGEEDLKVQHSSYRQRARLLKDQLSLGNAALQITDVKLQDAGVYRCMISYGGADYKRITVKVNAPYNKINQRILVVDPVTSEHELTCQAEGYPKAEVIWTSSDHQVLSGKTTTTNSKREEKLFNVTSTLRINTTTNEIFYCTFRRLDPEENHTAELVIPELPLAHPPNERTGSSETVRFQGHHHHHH
Outline: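 Soluble Fc-fused PD-1 and His-tagged PD-L1 (truncated before the transmembrane region) were combined in dPBS with 0.1% (w/v) BSA and 0.05% (v/v) Tween-20. Binding was read by HTRF using europium cryptate anti-Ig antibody (1 nM final) and APC anti-His antibody (20 nM final).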

[1] = molecular target: T2, LK35.2-hPD-L1 cells / PE-labeled PD-1-Ig (Homo sapiens, UniProt Q9NZQ7); assay: LK35.2-hPD-L1 cell binding high-content screening assay; format: cell-based; settings: cluster symbol, read-out: CBA IC50 cluster
T2 construct: expressed in transfected cells; host or cells: LK35.2 mouse B cell line
T2 sequence (Q9NZQ7 19-290): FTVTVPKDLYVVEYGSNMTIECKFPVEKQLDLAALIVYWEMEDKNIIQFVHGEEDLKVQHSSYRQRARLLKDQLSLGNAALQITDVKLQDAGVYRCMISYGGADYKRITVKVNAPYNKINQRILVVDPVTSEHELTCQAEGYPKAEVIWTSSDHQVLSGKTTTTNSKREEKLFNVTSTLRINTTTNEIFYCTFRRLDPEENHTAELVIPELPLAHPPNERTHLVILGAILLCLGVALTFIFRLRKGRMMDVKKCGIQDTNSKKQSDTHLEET
Outline: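 Binding of PE-conjugated human PD-1-Ig (1 nM final) to human PD-L1 stably expressed on a mouse B-cell line (LK35.2) was measured by high-content imaging after washes. Compound and labeled PD-1-Ig were co-incubated 1 h at 37 °C with cells in RPMI/10% FCS.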

[2] = cell binding assay, cell line not given

Row | Compound | IC50 (Human PD-L1/PD-1) [nM] | IC50 ([1]; cell line of CBA not given (LK35.2-hPD-L1 or 293T-hPD-L1)) [nM] | IC50 [1, 2] [nM]
1 | CCCC[C@H]1C(=O)N2CCC[C@@H]2C(=O)N[C@@H](CO)C(=O)N[C@@H](C(C)C)C(=O)N(C)[C@@H](Cc2ccccc2)C(=O)N[C@@H](Cc2ccc(CN)cc2)C(=O)N2CCC[C@@H]2C(=O)N[C@@H](Cc2c[nH]c3ccccc23)C(=O)N[C@@H](Cc2ccc(O)cc2)C(=O)N[C@@H](CCCCN)C(=O)N[C@H](C(=O)NCC(N)=O)CSCC(=O)N[C@@H](Cc2cc(F)c(F)c(F)c2)C(=O)N(C)[C@@H](Cc2ccccc2)C(=O)N1C [Example 3199] ({CH2CO}-[Phe(3,4,5-F3)][NMeF][NMeNle][dP]SV[NMeF][Phe(4-CH2NH2)][dP]WYKCG-NH2; thioether N-13) | 6.76 to 30.3 | 0.158 to 4.71 | 
2 | CCCCC1C(=O)N[C@@H](CCC(=O)O)C(=O)N[C@@H](CC(=O)O)C(=O)N[C@@H](C(C)C)C(=O)N(C)[C@@H](Cc2ccccc2)C(=O)N[C@@H](Cc2ccc(O)cc2)C(=O)N(C)CC(=O)N[C@@H](Cc2c[nH]c3ccccc23)C(=O)N[C@@H](Cc2ccc(O)cc2)C(=O)N[C@@H](CC(C)C)C(=O)N[C@H](C(=O)NCC(N)=O)CSCC(=O)N[C@@H](Cc2ccccc2)C(=O)N(C)[C@@H](Cc2ccccc2)C(=O)N1C (some centres unmarked) [Example 3500] (HELM PEPTIDE1{[O=C(C[*:3])[*:2]].F.[meF].[CCCCC(C(=O)[*:2])N(C)[*:1]].E.D.V.[meF].Y.[Sar].W.Y.L.C.G.[am]}$PEPTIDE1,PEPTIDE1,1:R3-14:R3$$$V2.0) | > 30.5 |  | > 74.3
3 | CCCC[C@H]1C(=O)N(C)CC(=O)N[C@@H](CCCNC(=N)N)C(=O)N[C@@H](C(C)C)C(=O)N(C)[C@@H](Cc2ccccc2)C(=O)N[C@@H](Cc2ccc(O)cc2)C(=O)N(C)CC(=O)N[C@@H](Cc2c[nH]c3ccccc23)C(=O)N[C@@H](Cc2ccc(O)cc2)C(=O)N[C@@H](CC(C)C)C(=O)N[C@H](C(=O)NCC(N)=O)CSCC(=O)N[C@@H](Cc2ccccc2)C(=O)N(C)[C@@H](Cc2ccccc2)C(=O)N1C [Example 3501] (HELM PEPTIDE1{[O=C(C[*:3])[*:2]].F.[meF].[CCCC[C@@H](C(=O)[*:2])N(C)[*:1]].[Sar].R.V.[meF].Y.[Sar].W.Y.L.C.G.[am]}$PEPTIDE1,PEPTIDE1,1:R3-14:R3$$$V2.0) | 6.76 to 30.3 |  | 4.78 to 72.9
4 | CCCC[C@H]1C(=O)N(C)CC(=O)N[C@@H](CCC(=O)O)C(=O)N[C@@H](C(C)C)C(=O)N(C)[C@@H](Cc2ccccc2)C(=O)N[C@@H](Cc2ccc(O)cc2)C(=O)N(C)CC(=O)N[C@@H](Cc2c[nH]c3ccccc23)C(=O)N[C@@H](Cc2ccc(O)cc2)C(=O)N[C@@H](CC(C)C)C(=O)N[C@H](C(=O)NCC(N)=O)CSCC(=O)N[C@@H](Cc2ccccc2)C(=O)N(C)[C@@H](Cc2ccccc2)C(=O)N1C [Example 3502] (HELM PEPTIDE1{[O=C(C[*:3])[*:2]].F.[meF].[CCCC[C@@H](C(=O)[*:2])N(C)[*:1]].[Sar].E.V.[meF].Y.[Sar].W.Y.L.C.G.[am]}$PEPTIDE1,PEPTIDE1,1:R3-14:R3$$$V2.0) | 6.76 to 30.3 |  | 4.78 to 72.9
5 | CCCC[C@H]1C(=O)N(C)CC(=O)N[C@@H](CC(=O)O)C(=O)N[C@@H](Cc2ccc(O)cc2)C(=O)N(C)[C@@H](Cc2ccccc2)C(=O)N[C@@H](Cc2ccc(O)cc2)C(=O)N(C)CC(=O)N[C@@H](Cc2c[nH]c3ccccc23)C(=O)N[C@@H](Cc2ccc(O)cc2)C(=O)N[C@@H](CC(C)C)C(=O)N[C@H](C(=O)NCC(N)=O)CSCC(=O)N[C@@H](Cc2ccccc2)C(=O)N(C)[C@@H](Cc2ccccc2)C(=O)N1C [Example 3503] (HELM PEPTIDE1{[O=C(C[*:3])[*:2]].F.[meF].[CCCC[C@@H](C(=O)[*:2])N(C)[*:1]].[Sar].D.Y.[meF].Y.[Sar].W.Y.L.C.G.[am]}$PEPTIDE1,PEPTIDE1,1:R3-14:R3$$$V2.0) | > 30.5 |  | > 74.3

Next, values leading:

Row | IC50 (Human PD-L1/PD-1) [nM] | IC50 ([1]; cell line of CBA not given (LK35.2-hPD-L1 or 293T-hPD-L1)) [nM] | IC50 [1, 2] [nM] | Compound
6 | > 30.5 |  | > 74.3 | CCCC[C@H]1C(=O)N(C)CC(=O)N[C@@H](CC(=O)O)C(=O)N[C@@H](C(C)C)C(=O)N[C@@H](Cc2ccc(O)cc2)C(=O)N[C@@H](Cc2ccc(O)cc2)C(=O)N(C)CC(=O)N[C@@H](Cc2c[nH]c3ccccc23)C(=O)N[C@@H](Cc2ccc(O)cc2)C(=O)N[C@@H](CC(C)C)C(=O)N[C@H](C(=O)NCC(N)=O)CSCC(=O)N[C@@H](Cc2ccccc2)C(=O)N(C)[C@@H](Cc2ccccc2)C(=O)N1C [Example 3504] (HELM PEPTIDE1{[O=C(C[*:3])[*:2]].F.[meF].[CCCC[C@@H](C(=O)[*:2])N(C)[*:1]].[Sar].D.V.Y.Y.[Sar].W.Y.L.C.G.[am]}$PEPTIDE1,PEPTIDE1,1:R3-14:R3$$$V2.0)
7 | 6.76 to 30.3 |  | 4.78 to 72.9 | CCCC[C@H]1C(=O)N(C)CC(=O)N[C@@H](CC(=O)O)C(=O)N[C@@H](C(C)C)C(=O)N(C)[C@@H](Cc2ccccc2)C(=O)N[C@@H](CC(C)C)C(=O)N(C)CC(=O)N[C@@H](Cc2c[nH]c3ccccc23)C(=O)N[C@@H](Cc2ccc(O)cc2)C(=O)N[C@@H](CC(C)C)C(=O)N[C@H](C(=O)NCC(N)=O)CSCC(=O)N[C@@H](Cc2ccccc2)C(=O)N(C)[C@@H](Cc2ccccc2)C(=O)N1C [Example 3505] (HELM PEPTIDE1{[O=C(C[*:3])[*:2]].F.[meF].[CCCC[C@@H](C(=O)[*:2])N(C)[*:1]].[Sar].D.V.[meF].L.[Sar].W.Y.L.C.G.[am]}$PEPTIDE1,PEPTIDE1,1:R3-14:R3$$$V2.0)
8 | 0.385 to 6.74 |  | 4.78 to 72.9 | CCCC[C@H]1C(=O)N(C)CC(=O)N[C@@H](CC(=O)O)C(=O)N[C@@H](C(C)C)C(=O)N(C)[C@@H](Cc2ccccc2)C(=O)N[C@@H](CCCNC(=N)N)C(=O)N(C)CC(=O)N[C@@H](Cc2c[nH]c3ccccc23)C(=O)N[C@@H](Cc2ccc(O)cc2)C(=O)N[C@@H](CC(C)C)C(=O)N[C@H](C(=O)NCC(N)=O)CSCC(=O)N[C@@H](Cc2ccccc2)C(=O)N(C)[C@@H](Cc2ccccc2)C(=O)N1C [Example 3506] (HELM PEPTIDE1{[O=C(C[*:3])[*:2]].F.[meF].[CCCC[C@@H](C(=O)[*:2])N(C)[*:1]].[Sar].D.V.[meF].R.[Sar].W.Y.L.C.G.[am]}$PEPTIDE1,PEPTIDE1,1:R3-14:R3$$$V2.0)
9 | 6.76 to 30.3 |  | > 74.3 | CCCC[C@H]1C(=O)N(C)CC(=O)N[C@@H](CC(=O)O)C(=O)N[C@@H](C(C)C)C(=O)N(C)[C@@H](Cc2ccccc2)C(=O)N[C@@H](CCC(=O)O)C(=O)N(C)CC(=O)N[C@@H](Cc2c[nH]c3ccccc23)C(=O)N[C@@H](Cc2ccc(O)cc2)C(=O)N[C@@H](CC(C)C)C(=O)N[C@H](C(=O)NCC(N)=O)CSCC(=O)N[C@@H](Cc2ccccc2)C(=O)N(C)[C@@H](Cc2ccccc2)C(=O)N1C [Example 3507] (HELM PEPTIDE1{[O=C(C[*:3])[*:2]].F.[meF].[CCCC[C@@H](C(=O)[*:2])N(C)[*:1]].[Sar].D.V.[meF].E.[Sar].W.Y.L.C.G.[am]}$PEPTIDE1,PEPTIDE1,1:R3-14:R3$$$V2.0)
10 | 0.385 to 6.74 |  | 4.78 to 72.9 | CCCC[C@H]1C(=O)N(C)CC(=O)N[C@@H](CC(=O)O)C(=O)N[C@@H](C(C)C)C(=O)N(C)[C@@H](Cc2ccccc2)C(=O)N[C@@H](Cc2ccc(O)cc2)C(=O)N(C)CC(=O)N[C@@H](Cc2c[nH]c3ccccc23)C(=O)N[C@@H](Cc2ccc(O)cc2)C(=O)N[C@@H](CCCNC(=N)N)C(=O)N[C@H](C(=O)NCC(N)=O)CSCC(=O)N[C@@H](Cc2ccccc2)C(=O)N(C)[C@@H](Cc2ccccc2)C(=O)N1C [Example 3508] (HELM PEPTIDE1{[O=C(C[*:3])[*:2]].F.[meF].[CCCC[C@@H](C(=O)[*:2])N(C)[*:1]].[Sar].D.V.[meF].Y.[Sar].W.Y.R.C.G.[am]}$PEPTIDE1,PEPTIDE1,1:R3-14:R3$$$V2.0)
11 | 6.76 to 30.3 |  | > 74.3 | CCCC[C@H]1C(=O)N(C)CC(=O)N[C@@H](CC(=O)O)C(=O)N[C@@H](C(C)C)C(=O)N(C)[C@@H](Cc2ccccc2)C(=O)N[C@@H](Cc2ccc(O)cc2)C(=O)N(C)CC(=O)N[C@@H](Cc2c[nH]c3ccccc23)C(=O)N[C@@H](Cc2ccc(O)cc2)C(=O)N[C@@H](CCC(=O)O)C(=O)N[C@H](C(=O)NCC(N)=O)CSCC(=O)N[C@@H](Cc2ccccc2)C(=O)N(C)[C@@H](Cc2ccccc2)C(=O)N1C [Example 3509] (HELM PEPTIDE1{[O=C(C[*:3])[*:2]].F.[meF].[CCCC[C@@H](C(=O)[*:2])N(C)[*:1]].[Sar].D.V.[meF].Y.[Sar].W.Y.E.C.G.[am]}$PEPTIDE1,PEPTIDE1,1:R3-14:R3$$$V2.0)
12 | > 30.5 |  | > 74.3 | CCCCC1C(=O)N[C@@H](CCCNC(=N)N)C(=O)N[C@@H](CC(=O)O)C(=O)N[C@@H](C(C)C)C(=O)N(C)[C@@H](Cc2ccccc2)C(=O)N[C@@H](Cc2ccc(O)cc2)C(=O)N(C)CC(=O)N[C@@H](Cc2c[nH]c3ccccc23)C(=O)N[C@@H](Cc2ccc(O)cc2)C(=O)N[C@@H](CC(C)C)C(=O)N[C@H](C(=O)NCC(N)=O)CSCC(=O)N[C@@H](Cc2ccccc2)C(=O)N(C)[C@@H](Cc2ccccc2)C(=O)N1C (some centres unmarked) [Example 3510] (HELM PEPTIDE1{[O=C(C[*:3])[*:2]].F.[meF].[CCCCC(C(=O)[*:2])N(C)[*:1]].R.D.V.[meF].Y.[Sar].W.Y.L.C.G.[am]}$PEPTIDE1,PEPTIDE1,1:R3-14:R3$$$V2.0)
13 | > 30.5 |  | 4.78 to 72.9 | CCCC[C@H]1C(=O)N(C)CC(=O)N[C@@H](CC(=O)O)C(=O)N[C@@H](C(C)C)C(=O)N(C)[C@@H](Cc2ccccc2)C(=O)N[C@@H](Cc2ccc(O)cc2)C(=O)N(C)[C@@H](Cc2ccc(O)cc2)C(=O)N[C@@H](Cc2c[nH]c3ccccc23)C(=O)N[C@@H](Cc2ccc(O)cc2)C(=O)N[C@@H](CC(C)C)C(=O)N[C@H](C(=O)NCC(N)=O)CSCC(=O)N[C@@H](Cc2ccccc2)C(=O)N(C)[C@@H](Cc2ccccc2)C(=O)N1C [Example 3511] (HELM PEPTIDE1{[O=C(C[*:3])[*:2]].F.[meF].[CCCC[C@@H](C(=O)[*:2])N(C)[*:1]].[Sar].D.V.[meF].Y.[meY].W.Y.L.C.G.[am]}$PEPTIDE1,PEPTIDE1,1:R3-14:R3$$$V2.0)
